Source: patent US20120122928A1 (priority 2010, published 2012)
Marks after values point to notes of the source that are not given here.

What was measured:
Phytophthora infestans = format: in vivo; conditions: young tomato plants sprayed, active ingredient concentration of 100 (unit not given); inoculated 1 day after treatment; evaluation 7 days after inoculation; 100% = no infection
[1] = LC-MS determination in the acidic range, pH 2.7, 0.1% aqueous formic acid and acetonitrile
Plasmopara viticola = experiment: Plasmopara test (grapevine) / protective; format: in vivo; conditions: young grapevine plants sprayed, active ingredient concentration 10 ppm; evaluation 6 days after inoculation; 100% = no infection
Protocol: Plasmopara Test (Grapevine)/Protective
To produce an appropriate active ingredient formulation, 1 part by weight of active ingredient is mixed with the specified amounts of solvent and emulsifier, and the concentrate is diluted with water to the desired concentration.
To test for protective efficacy, young plants are sprayed with the active ingredient formulation at the stated application rate. After the spray coating has dried on, the plants are inoculated with an aqueous spore suspension of Plasmopara viticola and then remain in an incubation cabin at approx. 20° C. and 100% relative air humidity for 1 day. Subsequently, the plants are placed in a greenhouse at approx. 21° C. and approx. 90% air humidity for 4 days. The plants are then moistened and placed in an incubation cabin for 1 day.
Evaluation follows 6 days after the inoculation. 0% means an efficacy which corresponds to that of the control, whereas an efficacy of 100% means that no infection is observed.
In this test, the following inventive compounds show, at an active ingredient concentration of 10 ppm, an efficacy of 70% or more: […]

SMILES | % eff. (Phytophthora infestans) | Log P [a] [1] | % eff. (Plasmopara viticola)
CON=Cc1ccccc1OCC1CC(c2csc(C3CCN(C(=O)Cn4nc(C(F)F)cc4C(F)F)CC3)n2)=NO1 (mixture of isomers) [I-60] | 94% | 3.39^[a]; 3.39^[b] | –
O=C(Cn1nc(C(F)F)cc1C(F)F)N1CCC(c2nc(C3=NOC(COc4ccccc4C=NO)C3)cs2)CC1 (mixture of isomers) [I-64] | 95% | 2.62 | 73%
O=C(Cn1nc(C(F)F)cc1C(F)F)N1CCC(c2nc(C3=NOC(COc4c(Cl)cccc4Cl)C3)cs2)CC1 (stereo not drawn) [I-1] | 100% | 3.7 | 100%
CC(C)(c1ccccc1)C1CC(c2csc(C3CCN(C(=O)Cn4nc(C(F)F)cc4C(F)F)CC3)n2)=NO1 (stereo not drawn) [I-4] | 100% | 3.79^[a] | 97%
O=C(Cn1nc(C(F)F)cc1C(F)F)N1CCC(c2nc(C3=NOC(C(F)c4ccccc4)C3)cs2)CC1 (stereo not drawn) [I-5] | 100% | 3.23^[a] | 100%
O=C(CCC1CC(c2csc(C3CCN(C(=O)Cn4nc(C(F)F)cc4C(F)F)CC3)n2)=NO1)c1ccccc1 (stereo not drawn) [I-6] | 100% | 3.16 | 96%
O=C(Cn1nc(C(F)F)cc1C(F)F)N1CCC(c2nc(C3=NOC(CS(=O)(=O)c4ccccc4)C3)cs2)CC1 (stereo not drawn) [I-7] | 100% | 2.65^[a]; 2.65^[b] | 96%
O=C(Cn1nc(C(F)F)cc1C(F)F)N1CCC(c2nc(C3=NOC(C(O)c4ccccc4)C3)cs2)CC1 (stereo not drawn) [I-8] | 100% | 2.53^[a] | 93%
O=C(Cn1nc(C(F)F)cc1C(F)F)N1CCC(c2nc(C3=NOC(CSc4ccccc4)C3)cs2)CC1 (stereo not drawn) [I-10] | 100% | 3.46 | 93%
CC(C)(c1ccccc1)C1CC(c2csc(C3(F)CCN(C(=O)Cn4nc(C(F)F)cc4C(F)F)CC3)n2)=NO1 (stereo not drawn) [I-11] | 95% | 4.03^[a] | –
CC(=O)c1ccccc1OCC1CC(c2csc(C3CCN(C(=O)Cn4nc(C(F)F)cc4C(F)F)CC3)n2)=NO1 (stereo not drawn) [I-12] | 100% | 2.93 | 70%
Cc1ccccc1OCC1CC(c2csc(C3CCN(C(=O)Cn4nc(C(F)F)cc4C(F)F)CC3)n2)=NO1 (stereo not drawn) [I-13] | 100% | 3.5 | –
CN(CC1CC(c2csc(C3CCN(C(=O)Cn4nc(C(F)F)cc4C(F)F)CC3)n2)=NO1)c1ccccc1 (stereo not drawn) [I-14] | 95% | 3.47 | –
O=C(Cn1nc(C(F)F)cc1C(F)F)N1CCC(c2nc(C3=NOC(C(F)c4c(F)cccc4F)C3)cs2)CC1 (stereo not drawn) [I-17] | 95% | 3.36^[a] | 100%
Fc1cccc(F)c1C(F)C1CC(c2csc(C3CCN(C(=S)Cn4nc(C(F)F)cc4C(F)F)CC3)n2)=NO1 (stereo not drawn) [I-18] | 95% | 3.81^[a] | 100%
Cc1cc(C(F)(F)F)nn1CC(=O)N1CCC(c2nc(C3=NOC(C(F)c4ccccc4)C3)cs2)CC1 (stereo not drawn) [I-19] | 100% | 3.3^[a] | 94%
Cc1cc(C(F)(F)F)nn1CC(=O)N1CCC(c2nc(C3=NOC(C(F)c4c(F)cccc4F)C3)cs2)CC1 (stereo not drawn) [I-20] | 95% | 3.48^[a] | 93%
Cc1ccc(C)c(NC(=S)N2CCC(c3nc(C4=NOC(C(F)(F)c5ccccc5)C4)cs3)CC2)c1 (stereo not drawn) [I-21] | 95% | 3.86^[a] | 85%
O=C(Cn1nc(C(F)F)cc1C(F)F)N1CCC(c2nc(C3=NOC(C(F)(F)c4c(F)cccc4F)C3)cs2)CC1 (stereo not drawn) [I-22] | 95% | 3.47^[a] | 100%
O=C(Cc1cc(Cl)ccc1Cl)N1CCC(c2nc(C3=NOC(COc4ccccc4)C3)cs2)CC1 (stereo not drawn) [I-23] | 95% | 3.89 | 89%
O=C(Nc1cc(C(F)F)ccc1C(F)F)N1CCC(c2nc(C3=NOC(C(F)c4ccccc4)C3)cs2)CC1 (stereo not drawn) [I-24] | 100% | 3.41^[a] | 94%
Cc1cc(C(F)(F)F)nn1CC(=O)N1CCC(c2nc(C3=NOC(C(F)(F)c4ccccc4)C3)cs2)CC1 (stereo not drawn) [I-25] | 100% | 3.55^[a] | 94%
COc1ccccc1OCC1CC(c2csc(C3CCN(C(=O)Cn4nc(C(F)F)cc4C(F)F)CC3)n2)=NO1 (stereo not drawn) [I-26] | 100% | 3.01 | 96%
Cc1ccc(C)c(NC(=S)N2CCC(c3nc(C4=NOC(C(F)(F)c5c(F)cccc5F)C4)cs3)CC2)c1 (stereo not drawn) [I-27] | 90% | 3.81^[a] | 92%

SMILES | % eff. (Phytophthora infestans) | Log P [a] [1] | % eff. (Plasmopara viticola)
Cc1cc(C(F)(F)F)nn1CC(=O)N1CCC(c2nc(C3=NOC(C(F)(F)c4c(F)cccc4F)C3)cs2)CC1 (stereo not drawn) [I-28] | 100% | 3.51^[a] | 98%
Cc1ccc(C)c(CC(=O)N2CCC(c3nc(C4=NOC(COc5ccccc5)C4)cs3)CC2)c1 (stereo not drawn) [I-29] | 100% | 3.71 | 78%
O=C(Nc1cc(C(F)F)ccc1C(F)F)N1CCC(c2nc(C3=NOC(C(F)c4c(F)cccc4F)C3)cs2)CC1 (stereo not drawn) [I-30] | 95% | 3.60^[a] | 100%
Cc1ccc(C)c(NC(=S)N2CCC(c3nc(C4=NOC(C(F)c5c(F)cccc5F)C4)cs3)CC2)c1 (stereo not drawn) [I-32] | 94% | 3.80^[a] | 78%
Cc1ccc(Cl)cc1NC(=O)N1CCC(c2nc(C3=NOC(COc4ccccc4)C3)cs2)CC1 (stereo not drawn) [I-33] | 100% | 3.54 | –
FC(F)c1cc(C(F)F)n(CC(=S)N2CCC(c3nc(C4=NOC(COc5ccccc5)C4)cs3)CC2)n1 (stereo not drawn) [I-34] | 100% | 3.73 | 96%
O=C(Nc1cc(C(F)F)ccc1C(F)F)N1CCC(c2nc(C3=NOC(C(F)(F)c4c(F)cccc4F)C3)cs2)CC1 (stereo not drawn) [I-35] | 95% | 3.61^[a] | 100%
Cc1cc(C(F)(F)F)nn1CC(=O)N1CCC(c2nc(C3=NOC(COc4ccccc4)C3)cs2)CC1 (stereo not drawn) [I-37] | 100% | 3.27 | 97%
COc1ccc(C)cc1NC(=O)N1CCC(c2nc(C3=NOC(COc4ccccc4)C3)cs2)CC1 (stereo not drawn) [I-38] | 100% | 3.59 | –
Cc1ccc(C)c(NC(=S)N2CCC(c3nc(C4=NOC(C(F)c5ccccc5)C4)cs3)CC2)c1 (stereo not drawn) [I-39] | 100% | 3.61^[a] | 78%
C[Si](C)(c1ccccc1)C1CC(c2csc(C3CCN(C(=O)Cn4nc(C(F)F)cc4C(F)F)CC3)n2)=NO1 (stereo not drawn) [I-40] | 100% | 4.01 | 92%
Cc1ccc(C)c(NC(=O)N2CCC(c3nc(C4=NOC(COc5ccccc5)C4)cs3)CC2)c1 (stereo not drawn) [I-41] | 100% | 3.36 | 94%
Fc1cccc(F)c1C(F)(F)C1CC(c2csc(C3CCN(C(=S)Cn4nc(C(F)F)cc4C(F)F)CC3)n2)=NO1 (stereo not drawn) [I-42] | 95% | 3.94^[a] | 100%
O=C(Cn1nc(C(F)F)cc1C(F)F)N1CCC(c2nc(-c3cc(COc4ccccc4)on3)cs2)CC1 [I-44] | 95% | 3.63 | 100%
Cc1cc(C(F)F)nn1CC(=O)N1CCC(c2nc(C3=NOC(COc4c(Cl)cccc4Cl)C3)cs2)CC1 (stereo not drawn) [I-45] | 93% | 3.35 | 100%
Cc1cc(C(F)(F)F)nn1CC(=O)N1CCC(c2nc(C3=NOC(COc4c(F)cccc4Cl)C3)cs2)CC1 (stereo not drawn) [I-46] | 95% | 3.54 | 98%
CC(O)(c1c(F)cccc1F)C1CC(c2csc(C3CCN(C(=O)Cn4nc(C(F)F)cc4C(F)F)CC3)n2)=NO1 (stereo not drawn) [I-47] | 93% | 3.03 | 95%
Cc1cc(C(F)F)nn1CC(=O)N1CCC(c2nc(C3=NOC(COc4c(F)cccc4F)C3)cs2)CC1 (stereo not drawn) [I-48] | – | 3.01 | 96%
O=C(Cn1nc(C(F)F)cc1C(F)F)N1CCC(c2nc(C3=NOC(C(O)(c4ccccc4)C(F)(F)F)C3)cs2)CC1 (stereo not drawn) [I-49] | 97% | 3.2 | –
Cc1ccc(Cl)cc1NC(=O)N1CCC(c2nc(C3=NOC(COc4c(F)cccc4F)C3)cs2)CC1 (stereo not drawn) [I-50] | 92% | 3.66 | 97%
CC(C)(c1c(F)cccc1Cl)C1CC(c2csc(C3CCN(C(=O)Nc4cc(C(F)F)ccc4C(F)F)CC3)n2)=NO1 (stereo not drawn) [I-53] | 91% | 4.53 | –
Cc1ccccc1SCC1CC(c2csc(C3CCN(C(=O)Cn4nc(C(F)F)cc4C(F)F)CC3)n2)=NO1 (stereo not drawn) [I-70] | 95% | 3.78 | –
O=Cc1ccccc1OCC1CC(c2csc(C3CCN(C(=O)Cn4nc(C(F)F)cc4C(F)F)CC3)n2)=NO1 (stereo not drawn) [I-73] | 90% | 2.83^[a]; 2.83^[b] | –
O=C(Cn1nc(C(F)F)cc1C(F)F)N1CCC(c2nc(C3=NOC(COc4c(F)cccc4Br)C3)cs2)CC1 (stereo not drawn) [I-75] | – | 3.67 | 98%
